# Laboratory results: publication PMC9305971, “Development of [^18F]AmBF3 Tetrazine for Radiolabeling of Peptides: Preclinical Evaluation and PET Imaging of [^18F]AmBF3-PEG7-Tyr^3-Octreotide in an AR42J Pancreatic Carcinoma Model” (Bioconjugate Chemistry, 2022)
# Read-outs that look alike come from different tables or passages of the source.
# What was measured:
# [1] = tested on: SSTR2-expressing rat pancreatic adenocarcinoma AR42J cells; assay: Cell uptake assay; assay type: cell-based; details: 120 min
# Experimental: AR42J cells were grown to >90% confluence. One million cells/well were seeded overnight on 6-well plates. The growth media was removed, and the reaction media (1 mL) containing [^18F]14 (11 kBq, 10 pmol per well) or [^18F]15 (97 kBq, 40 pmol per well) was added. Additionally, cells were coincubated with 2.4 nmol per well of nonmodified octreotide for blocking of radiotracer uptake. Radioactivity in the free, membrane-bound, and internalized fractions was determined at designated time points (15, 30, 60, and 120 min) by treating the cells in a sequence of (1) ice-cold 0.01 M PBS, (2) glycine buffer, and (3) 1 M NaOH, respectively. The fractions were collected and measured with a γ-counter. The detailed protocol is given in the Supporting Information. […]
# where Acoct=radioactivity concentration of octanol and AcPBS=radioactivity concentration of PBS. The datapoints were presented as mean ± standard deviation.
# AR42J cell-uptake assay and mouse tumor model. Rat pancreatic tumor cell line AR42J that expresses SSTR2, was cultured at 37 °C in 95% relative humidity incubator containing 5% CO2. Cells grown to >90% confluence were used for either in vitro or in vivo experiments.
# One million cells/well were seeded overnight on 6-well plates. The growth media was removed and the medium (1 mL/well) containing [18F]14 (11 kBq, 10 pmol per well) or [18F]15 (97 kBq, 40 pmol per well) was added. For studying the specificity of the cell -uptake, a set of cells were co-incubated in the presence of 2.4 nmol per well of non -modified octreotide representative of blocking conditions (total volume ~1 mL). For determining the amount of the radiotracer in the free fraction, at the designated time-points (15, 30, 60 and 120 min) the incubated media were removed, collected to a 5 mL scintillation tube, cells were washed with 1 mL of cold 0.01 M PBS (1×PBS) and again the supernatant collected into the same scintillation tube. Membrane-bound fraction; ice-cold glycine buffer (1 mL) was added on the cells, incubated for 5 minutes on ice, supernatant removed (procedure repeated once more) and the cells washed with ice -cold 1×PBS, and all washing solutions were collected to the same scintillation tube. Internalized fraction; 1 M NaOH (1 mL) was added on the cells and left incubating at an ambient temperature for 10 min. The supernatant was removed, the wells were washed 2 × 1 mL of cold 0.01 M PBS, and the supernatants collected to the same microtube. The collected samples were measured with a gamma counter for measuring the counts per minute (CPM) of each fraction (n = 3). The internalization is presented in percent (%) normalized to the total radioactivity in all three
# [2] = Hydrolytic stability in 0.01 M PBS / formulated solution (radio-HPLC); assay type: physicochemical; details: 4% ethanol-0.01 M PBS (pH 7.4), several time points up to 6 h
# Experimental: Lipophilicity was determined with the shake-flask method as a distribution coefficient between 0.01 M PBS and octanol. Purified radiotracer [^18F]6 (10 μL, ∼200 kBq, 1.5 nmol), [^18F]14 (20 μL, ∼260 kBq, 125 pmol), or [^18F]15 (20 μL, 144 kBq, 67 pmol) in a polypropylene tube containing 1500–2000 μL of each in a 1:1 mixture (1-octanol, 0.02 M PBS, pH 7.4) was shaken mechanically (500 rpm, 10 min) and centrifuged (1000g, 5 min), and samples from each layer (400 μL, n = 4) were measured with a γ-counter. The log D7.4 was calculated as a distribution between the two layers at pH 7.4. [^18F]6 (10 MBq, 40 nmol) diluted with 0.01 M PBS at pH 7.4 (≤1% ethanol, 5300 μL) was incubated for 180 min. At selected time points (5, 30, 60, 90, 120, 150, and 180 min), a sample (100 μL) was injected to radio-HPLC. [^18F]14 and [^18F]15 (29 MBq, 10 nmol) diluted in 2000 μL of 0.01 M PBS (≤1% ethanol) were left to incubate. A sample of [^18F]14 (100 μL) after 9 hours and [^18F]15 at selected time points between 30 and 335 min were injected into HPLC (method A). [^18F]15 (0.6 MBq, 0.134 nmol, 200 μL) formulated in ≤5% EtOH-1 × PBS was added and incubated in 2000 μL of PBS-50% human plasma at 37 °C. A 100 μL sample (at 60, 120, 180, and 240 min, n = 2) was diluted with 200 μL of cold acetonitrile and centrifuged (10,000g, 5 min). After centrifugation, a 100 μL sample of the supernatant was injected for radio-HPLC analysis.
# [3] = Ex vivo biodistribution of [18F]14 and [18F]15; assay type: in vivo, Rj:NMRI-Foxn1^nu/nu mice; details: mouse, iv, 0.2 nmol; for tissue to tissue ratio at 1 h: Rj:NMRI-Foxn1^nu/nu, tumor (AR42J xenograft) / blood, total radioactivity, read-out: T/blood ratio; for tissue to tissue ratio at 1 h / tissue uptake at 1 h: 60 min post injection; for tissue uptake at 1 h / tissue uptake at 2 h: i.v.; for tissue uptake at 2 h: 120 min post injection
# Experimental: (§1) [^18F]14 and [^18F]15 in ≤4% ethanol–0.01 M PBS were administered intravenously (1.2 ± 0.0 and 2.0 ± 0.1 MBq, respectively, 0.2 nmol, 150 μL) to AR42J tumor-bearing Rj:NMRI-Foxn1^nu/nu mice. At predetermined time points (t = 30, 60, 120, and 240 min), animals were euthanized with CO2 asphyxiation and cervical dislocation, and then the organs were harvested, washed with water, and blotted dry, following with weighing and γ counting from which the % ID/g in tissues was determined.
# AR42J xenografts = assay: Ex vivo biodistribution of [18F]14 and [18F]15; assay type: in vivo, Rj:NMRI-Foxn1^nu/nu mice
# Experimental: as §1
smiles,measurement,setting,value
C[C@@H](O)[C@@H]1NC(=O)[C@H](CCCCN)NC(=O)[C@@H](Cc2c[nH]c3ccccc23)NC(=O)[C@H](Cc2ccc(O)cc2)NC(=O)[C@@H](NC(=O)[C@@H](Cc2ccccc2)NC(=O)CCOCCOCCOCCOCCON=Cc2ccc(C(=O)NCCOCCOCCOCCNC(=O)OC3CCCc4cnnc(-c5ccc(CC(=O)NCC[N+](C)(C)C[B-](F)(F)F)cc5)c4CC3)cc2)CSSC[C@@H](C(=O)N[C@H](CO)[C@@H](C)O)NC1=O (stereo partly drawn) [[^18F]15],"cell uptake, baseline","[1]; n = 3, % internalized",6.1 ± 0.6%
same,"cell uptake, blocking","[1]; n = 3, coincubation with excess octreotide",0.7 ± 0.1%
same,stability in the formulated solution,[2],stable
same,tissue to tissue ratio at 1 h,[3]; blocked,0.4
same,tissue to tissue ratio at 1 h,[3]; baseline,0.5
same,tissue uptake at 1 h,"[3]; baseline, read-out: blood",9.6 ± 3.3 %ID/g
same,tissue uptake at 1 h,"[3]; baseline, read-out: brain",0.3 ± 0.1 %ID/g
same,tissue uptake at 1 h,"[3]; baseline, read-out: gallbladder",9.1 ± 7 %ID/g
same,tissue uptake at 1 h,"[3]; baseline, read-out: heart",2.6 ± 0.6 %ID/g
same,tissue uptake at 1 h,"[3]; baseline, read-out: kidney",21 ± 4.5 %ID/g
same,tissue uptake at 1 h,"[3]; baseline, read-out: liver",19 ± 5.4 %ID/g
same,tissue uptake at 1 h,"[3]; baseline, read-out: lung",5.4 ± 2.3 %ID/g
same,tissue uptake at 1 h,"[3]; baseline, read-out: muscle",1.1 ± 0.9 %ID/g
same,tissue uptake at 1 h,"[3]; baseline, read-out: pancreas",1.6 ± 0.5 %ID/g
same,tissue uptake at 1 h,"[3]; baseline, read-out: skin",2.4 ± 0.9 %ID/g
same,tissue uptake at 1 h,"[3]; baseline, read-out: spleen",1.4 ± 0.3 %ID/g
same,tissue uptake at 1 h,"[3]; baseline, read-out: urine",~174 %ID/g
same,tissue uptake at 1 h,"[3]; blocked with octreotide, read-out: blood",7.2 ± 2.5 %ID/g
same,tissue uptake at 1 h,"[3]; blocked with octreotide, read-out: brain",0.2 ± 0.1 %ID/g
same,tissue uptake at 1 h,"[3]; blocked with octreotide, read-out: gallbladder",18.8 ± 10.3 %ID/g
same,tissue uptake at 1 h,"[3]; blocked with octreotide, read-out: heart",2.1 ± 0.5 %ID/g
same,tissue uptake at 1 h,"[3]; blocked with octreotide, read-out: kidney",15.9 ± 2.7 %ID/g
same,tissue uptake at 1 h,"[3]; blocked with octreotide, read-out: liver",11.8 ± 4.7 %ID/g
same,tissue uptake at 1 h,"[3]; blocked with octreotide, read-out: lung",3.6 ± 1.4 %ID/g
same,tissue uptake at 1 h,"[3]; blocked with octreotide, read-out: muscle",0.5 ± 0.1 %ID/g
same,tissue uptake at 1 h,"[3]; blocked with octreotide, read-out: pancreas",0.9 ± 0.5 %ID/g
same,tissue uptake at 1 h,"[3]; blocked with octreotide, read-out: skin",1.6 ± 0.2 %ID/g
same,tissue uptake at 1 h,"[3]; blocked with octreotide, read-out: spleen",0.9 ± 0.2 %ID/g
same,tissue uptake at 1 h,"[3]; blocked with octreotide, read-out: urine",303 ± 146 %ID/g
same,tissue uptake at 1 h,"[3]; large intestine with contents, baseline, read-out: L. I. (+cont.), large intestine",1 ± 0.7 %ID/g
same,tissue uptake at 1 h,"[3]; large intestine with contents, blocked with octreotide, read-out: L. I. (+cont.), large intestine",0.7 ± 0.3 %ID/g
same,tissue uptake at 1 h,"[3]; occipital bone, baseline, read-out: bone, occipital",0.9 ± 0.3 %ID/g
same,tissue uptake at 1 h,"[3]; occipital bone, blocked with octreotide, read-out: bone, occipital",1 ± 0.3 %ID/g
same,tissue uptake at 2 h,"[3]; occipital bone, read-out: bone, occipital",0.6 ± 0.1 %ID/g
same,tissue uptake at 1 h,"[3]; small intestine with contents, baseline, read-out: S. I. (+cont.), small intestines",3.6 ± 2.1 %ID/g
same,tissue uptake at 1 h,"[3]; small intestine with contents, blocked with octreotide, read-out: S. I. (+cont.), small intestines",5 ± 1.7 %ID/g
same,tissue uptake at 1 h,"[3]; stomach with contents, baseline, read-out: stomach (+cont.)",1.4 ± 0.8 %ID/g
same,tissue uptake at 1 h,"[3]; stomach with contents, blocked with octreotide, read-out: stomach (+cont.)",0.6 ± 0.1 %ID/g
same,tissue uptake at 1 h,"[3]; tibia bone, baseline, read-out: bone, tibia",1.1 ± 0.4 %ID/g
same,tissue uptake at 1 h,"[3]; tibia bone, blocked with octreotide, read-out: bone, tibia",0.8 ± 0.2 %ID/g
same,tissue uptake at 2 h,"[3]; tibia bone, read-out: bone, tibia",0.6 ± 0.4 %ID/g
same,tissue uptake at 1 h,"[3]; tumor, AR42J xenograft, baseline, read-out: tumor uptake",4.5 ± 1 %ID/g
same,tissue uptake at 1 h,"[3]; tumor, AR42J xenograft, blocked with octreotide, read-out: tumor uptake",3.1 ± 0.5 %ID/g
same,urine,"AR42J xenografts; 60 min post injection, i.v., baseline",174.2 ± 73.4 % ID/g
same,defluorination in vivo (in words),AR42J xenografts; judged from bone uptake,no indication of defluorination
